pIC50: −log10 of the molar value. “Also recorded” adds a separate entry of the source. Read-outs that look alike come from different tables or passages of the source.

A word on the pIC50: it is the negative decadic logarithm of the IC50, by convention in mol/L.

The target in one data set is T1, CYP2B6 (Homo sapiens, UniProt P20813).
T1 construct: from tissue; host or cells: ultrapooled human liver microsomes
T1 sequence (P20813 1-491): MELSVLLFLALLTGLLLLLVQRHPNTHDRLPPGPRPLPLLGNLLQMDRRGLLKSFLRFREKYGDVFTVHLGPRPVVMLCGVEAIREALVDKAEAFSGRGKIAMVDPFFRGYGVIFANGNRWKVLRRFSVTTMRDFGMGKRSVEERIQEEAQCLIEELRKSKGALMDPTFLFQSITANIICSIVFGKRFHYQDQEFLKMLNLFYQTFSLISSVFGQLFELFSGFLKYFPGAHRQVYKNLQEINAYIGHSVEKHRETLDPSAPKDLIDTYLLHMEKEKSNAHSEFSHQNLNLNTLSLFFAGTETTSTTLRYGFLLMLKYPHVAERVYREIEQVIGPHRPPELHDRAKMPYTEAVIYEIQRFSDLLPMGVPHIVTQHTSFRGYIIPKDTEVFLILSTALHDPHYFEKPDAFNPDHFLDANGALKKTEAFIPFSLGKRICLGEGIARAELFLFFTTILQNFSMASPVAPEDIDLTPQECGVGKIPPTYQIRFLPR
Kind of data set: CYP2B6 inhibition in human liver microsomes. In kind it is in vitro ADME. As to conditions: ultrapooled human liver microsomes 0.2 mg/mL, 50 μM bupropion, β-amanitin 0.1–100 μM, pH 7.4, 37 °C, 15 min, LC-MS/MS, n = 3, read-out: IC50, CYP2B6 bupropion hydroxylase. The protocol:
β-amanitin inhibition (IC50 values) of CYP1A2, CYP2A6, CYP2B6, CYP2C8, CYP2C9, CYP2C19, CYP2D6, and CYP3A4 enzyme activities in HLMs were evaluated using LC-MS/MS and CYP substrates as previously described. Each incubation mixture was made up to a volume of 100 μL including HLMs (0.2 mg/mL), 50 mM potassium phosphate buffer (pH 7.4), 1.0 mM NADPH, 10 mM magnesium chloride, various concentrations of β-amanitin (0.1–100 μM), a cocktail of seven CYP probe substrates (50 μM phenacetin for CYP1A2, 2.5 μM coumarin for CYP2A6, 2 μM amodiaquine for CYP2C8, 10 μM diclofenac for CYP2C9, 100 μM [S]-mephenytoin for CYP2C19, 5 μM bufuralol for CYP2D6, and 2.5 μM midazolam for CYP3A4 in acetonitrile), or 50 μM bupropion for CYP2B6. The reactions were initiated with NADPH followed by incubation in a shaking water bath at 37 °C for 15 min with or without 30 min preincubation with NADPH. Reactions were stopped with 50 μL of ice-cold methanol containing ^13C2, ^15N-acetaminophen and d9-1′-hydroxybufuralol (ISs). Incubation mixtures were centrifuged at 13,000× g for 8 min at 4 °C. An aliquot (5 μL) of the supernatant from the reaction mixture was analyzed by the previous LC-MS/MS method.

Data set [1] deals with mice. Put plainly: Death or toxicity observed during the toxicokinetic study. Type of data set: in vivo. To be noted: male ICR mice. The protocol:
β-amanitin was dissolved in water and administered by iv bolus injection into the tail vein of mice at doses of 0.2 (n = 8), 0.4 (n = 6), and 0.8 (n = 7) mg/kg. Blood samples (approximately 15 μL) were collected from the retro-orbital plexus under light anesthesia with isoflurane at 0.033, 0.083, 0.25, 0.5, 0.75, 1, 1.5, 2, 3, 4, 6, and 8 h after drug administration.
β-amanitin was dissolved in water and administered to mice by gavage at doses of 2 (n = 7), 5 (n = 9), and 10 (n = 7) mg/kg. Blood samples (approximately 15 μL) were collected from the retro-orbital plexus under light anesthesia with isoflurane at 0.033, 0.083, 0.166, 0.25, 0.5, 0.75, 1, 1.5, 2, 4, 6, and 8 h after drug administration. Plasma samples (5 μL each) were harvested by centrifugation at 13,000× g for 3 min at 4 °C and stored at −80 °C until analysis.

Data set [2] relates to mice. To be noted: intraperitoneal injection; cited from earlier work. From the text:
(§1) The Amanitaceae family is responsible for nearly 95% of all fatal mushroom poisonings, and amatoxins are the primary threats to human life. The content of amatoxins varies by Amanita species, but α- and β-amanitin are the most abundant substances. […] Among amatoxins, α-amanitin i ...

For a further data set, the system named is rats. To be noted: intraperitoneal injection; cited from earlier work.
Excerpt: as §1

In the next data set the test system is humans. As to conditions: oral administration; cited from earlier work. The protocol: Amanita phalloides poisoning can cause acute hepatitis, leading to the rapid development of liver insufficiency and ultimately coma and death. Nephrotoxicity is reported less frequently. Yilmaz et al. reported that an oral intake of approximately 50 g of fresh Amanita phalloides, representing a dose of 0.32 mg/kg of amatoxins, can be lethal. A few reports are available that describe the toxicokinetics of α- and β-amanitin after the oral administration of toadstool extract to beagle dogs and rats. In addition, the toxicokinetics of α-amanitin were investi ... || The Amanitaceae family is responsible for nearly 95% of all fatal mushroom poisonings, and amatoxins are the primary threats to human life. The content of amatoxins varies by Amanita species, but α- and β-amanitin are the most abundant substances. […] Among amatoxins, α-amanitin i ...

As to `CC[C@H](C)[C@@H]1NC(=O)CNC(=O)[C@@H]2Cc3c([nH]c4cc(O)ccc34)[S@+]([O-])C[C@H](NC(=O)CNC1=O)C(=O)N[C@@H](CC(=O)O)C(=O)N1C[C@H](O)C[C@H]1C(=O)N[C@@H]([C@@H](C)[C@@H](O)CO)C(=O)N2` [β-amanitin], the pIC50 on CYP2B6 (with 30 min NADPH preincubation) was 4.46; at CYP2B6 (without NADPH preincubation) it was 4.42. The “Death or serious toxicity after intravenous bolus administration” value in the data set on mice [1] (iv bolus via tail vein 0.2, 0.4 and 0.8 mg/kg) is given as “did not cause death or serious toxicity; also recorded: did not cause toxicity”. For the same molecule, the “Death or serious toxicity after oral administration” value with mice [1] (oral gavage 2, 5 and 10 mg/kg) was “did not cause death or serious toxicity; also recorded: did not cause toxicity”.
Take α-amanitin [reference compound]: the Lethal dose with mice [2] is 0.3 to 0.6 mg/kg; in the data set on rats, 4.0 mg/kg; in the data set on humans, 0.1 mg/kg.

The record behind these values is paper PMC9030691, “Toxicokinetics of β-Amanitin in Mice and In Vitro Drug–Drug Interaction Potential” (Pharmaceutics, 2022).
